Data on four molecules can be found in publication PMC11876601 (Molecular Systems Biology, 2025).

Read-outs that look alike come from different tables or passages of the source.

One assay relates to TNK1. The following applies: cited from earlier work.
A further assay concerns FER. The following applies: cited from earlier work.
A further assay concerns TNK2. To be noted: cited from earlier work.
The next assay concerns PLK4. The following applies: cited from earlier work.
Another assay has as its system FLT3. The following applies: cited from earlier work.
The test system of another assay is ULK3. To be noted: cited from earlier work.
In another assay the test system is AAK1. To be noted: cited from earlier work.
Another assay concerns Q6ZSR9. To be noted: cited from earlier work.
Another assay concerns PRKD2. To be noted: cited from earlier work.
For another assay, the system named is IRAK4. To be noted: cited from earlier work.
Another assay has as its system BMP2K. To be noted: cited from earlier work.
For a further assay, the system named is RPS6KA4. To be noted: cited from earlier work.
The subject of the next assay is SYK. To be noted: cited from earlier work.
Another assay has as its system PKN1. To be noted: cited from earlier work.
Another assay has as its target T1, ATR (Homo sapiens, UniProt Q13535).
T1 construct: endogenous in cells; host or cells: AsPC-1 lysate
The assay can be described thus: Kinobeads competition pulldown in AsPC-1 lysate. It counts as binding. On the procedure: (§1) This was followed by incubation with Kinobeads ε (17.5 µl of settled beads) for 30 min at 4 °C to enrich kinases. […] Enriched proteins were reduced with 50 mM DTT in 8 M urea, 40 mM Tris-HCl, pH 7.4 for 30 min at room temperature, and alkylated with 55 mM chloroacetamide. After reducing the urea concentration to 1–2 M, proteins were digested with trypsin at 37 °C for 16 h. Subsequently, eluted peptides were desalted using SepPak tC18 µElution plates (Waters), freeze-dried by vacuum centrifugation, and stored at −20 °C.
For LC-MS/MS, dried peptides were reconstituted in 0.1% formic acid and analyzed on a Dionex Ultimate3000 nano HPLC (Thermo Scientific) coupled to an Orbitrap Fusion Tribrid mass spectrometer (Thermo Scientific), which was run in data-dependent mode. Peptides were first delivered to a trap column (100 µm × 2 cm, packed in-house with Reprosil-Gold C18 ODS-3 5 µm resin, Dr. Maisch, Ammerbuch) and subsequently washed with solvent A0 (0.1% formic acid in HPLC grade water) at 5 µl/min for 10 min. […] For MS2, up to 12 peptide precursors were isolated (isolation width of 1.2 Th) and subjected to HCD fragmentation using 30% normalized collision energy. […] The duration of dynamic exclusion was set to 30 s.
Oxidized methionine and N-terminal acetylation were set as variable modification, and cysteine carbamidomethylation was set as fixed modification. Label-free quantification (LFQ) and match-between-runs were enabled. All searches were performed with 1% PSM and protein FDR.
Proteins were filtered by potential contaminants, reversed hits and proteins identified only by site. Residual binding of proteins was calculated from LFQ intensities as the ratio between drug doses and vehicle. […] Only kinases quantified with at least 4 unique peptides in the vehicle experiment were considered. Potential targets were further curated through manual inspection of dose-dependent reduction in MS/MS and unique peptide counts.

For the next assay, the target named is GSK3A ; P49840 (Homo sapiens, UniProt P49840). Kind of assay: biochemical. Details: species or system AsPC-1; Kinobeads competition pulldown in AsPC-1 lysate with LC-MS/MS label-free quantification; apparent Kd. On the procedure:
as §1, with “°C. Proteins were filtered by potential contaminants, reversed hits and proteins identified only by site. Residual binding of proteins was calculated from LFQ intensities as the ratio between drug doses and vehicle. […] Only kinases quantified with at least 4 unique peptides in the vehicle experiment were considered. Potential targets were further curated through manual inspection of dose-dependent reduction in MS/MS and unique peptide counts.” for “°C.”

The target in another assay is MAP3K1 ; Q13233 (Homo sapiens, UniProt Q13233). The assay can be described thus: biochemical. Details: species or system AsPC-1; Kinobeads competition pulldown in AsPC-1 lysate with LC-MS/MS label-free quantification; apparent Kd. On the procedure:
as §1, with “°C. Proteins were filtered by potential contaminants, reversed hits and proteins identified only by site. Residual binding of proteins was calculated from LFQ intensities as the ratio between drug doses and vehicle. […] Only kinases quantified with at least 4 unique peptides in the vehicle experiment were considered. Potential targets were further curated through manual inspection of dose-dependent reduction in MS/MS and unique peptide counts.” for “°C.”

[1] abbreviates: 4 cell line mix lysate, Kinobeads y, ref Klaeger et al. (2017).
The mark [2] stands for this setting: TNK1, 5 cell line mix lysate, Kinobeads ε, ref Reinecke et al. (2023).
The mark [3] stands for this setting: 5 cell line mix lysate, Kinobeads ε, ref Reinecke et al. (2023).
The mark [4] stands for this setting: TNK2, 5 cell line mix lysate, Kinobeads ε, ref Reinecke et al. (2023).
The mark [5] stands for this setting: PLK4, 5 cell line mix lysate, Kinobeads ε, ref Reinecke et al. (2023).
Where [6] appears, read: FLT3, 5 cell line mix lysate, Kinobeads ε, ref Reinecke et al. (2023).
The mark [7] stands for this setting: ULK3, 5 cell line mix lysate, Kinobeads ε, ref Reinecke et al. (2023).
Where [8] appears, read: AAK1, 5 cell line mix lysate, Kinobeads ε, ref Reinecke et al. (2023).
Setting [9] is: Q6ZSR9, 5 cell line mix lysate, Kinobeads ε, ref Reinecke et al. (2023).
Setting [10] is: PRKD2, 5 cell line mix lysate, Kinobeads ε, ref Reinecke et al. (2023).
[11] abbreviates: IRAK4, 5 cell line mix lysate, Kinobeads ε, ref Reinecke et al. (2023).
Where [12] appears, read: 5 cell line mix lysate, Kinobeads ε, ref Reinecke et al. (2023), read-out: KDapp.
The mark [13] stands for this setting: RPS6KA4, 5 cell line mix lysate, Kinobeads ε, ref Reinecke et al. (2023).
Setting [14] is: PKN1, 5 cell line mix lysate, Kinobeads ε, ref Reinecke et al. (2023).

T1 sequence (Q13535 whole entry): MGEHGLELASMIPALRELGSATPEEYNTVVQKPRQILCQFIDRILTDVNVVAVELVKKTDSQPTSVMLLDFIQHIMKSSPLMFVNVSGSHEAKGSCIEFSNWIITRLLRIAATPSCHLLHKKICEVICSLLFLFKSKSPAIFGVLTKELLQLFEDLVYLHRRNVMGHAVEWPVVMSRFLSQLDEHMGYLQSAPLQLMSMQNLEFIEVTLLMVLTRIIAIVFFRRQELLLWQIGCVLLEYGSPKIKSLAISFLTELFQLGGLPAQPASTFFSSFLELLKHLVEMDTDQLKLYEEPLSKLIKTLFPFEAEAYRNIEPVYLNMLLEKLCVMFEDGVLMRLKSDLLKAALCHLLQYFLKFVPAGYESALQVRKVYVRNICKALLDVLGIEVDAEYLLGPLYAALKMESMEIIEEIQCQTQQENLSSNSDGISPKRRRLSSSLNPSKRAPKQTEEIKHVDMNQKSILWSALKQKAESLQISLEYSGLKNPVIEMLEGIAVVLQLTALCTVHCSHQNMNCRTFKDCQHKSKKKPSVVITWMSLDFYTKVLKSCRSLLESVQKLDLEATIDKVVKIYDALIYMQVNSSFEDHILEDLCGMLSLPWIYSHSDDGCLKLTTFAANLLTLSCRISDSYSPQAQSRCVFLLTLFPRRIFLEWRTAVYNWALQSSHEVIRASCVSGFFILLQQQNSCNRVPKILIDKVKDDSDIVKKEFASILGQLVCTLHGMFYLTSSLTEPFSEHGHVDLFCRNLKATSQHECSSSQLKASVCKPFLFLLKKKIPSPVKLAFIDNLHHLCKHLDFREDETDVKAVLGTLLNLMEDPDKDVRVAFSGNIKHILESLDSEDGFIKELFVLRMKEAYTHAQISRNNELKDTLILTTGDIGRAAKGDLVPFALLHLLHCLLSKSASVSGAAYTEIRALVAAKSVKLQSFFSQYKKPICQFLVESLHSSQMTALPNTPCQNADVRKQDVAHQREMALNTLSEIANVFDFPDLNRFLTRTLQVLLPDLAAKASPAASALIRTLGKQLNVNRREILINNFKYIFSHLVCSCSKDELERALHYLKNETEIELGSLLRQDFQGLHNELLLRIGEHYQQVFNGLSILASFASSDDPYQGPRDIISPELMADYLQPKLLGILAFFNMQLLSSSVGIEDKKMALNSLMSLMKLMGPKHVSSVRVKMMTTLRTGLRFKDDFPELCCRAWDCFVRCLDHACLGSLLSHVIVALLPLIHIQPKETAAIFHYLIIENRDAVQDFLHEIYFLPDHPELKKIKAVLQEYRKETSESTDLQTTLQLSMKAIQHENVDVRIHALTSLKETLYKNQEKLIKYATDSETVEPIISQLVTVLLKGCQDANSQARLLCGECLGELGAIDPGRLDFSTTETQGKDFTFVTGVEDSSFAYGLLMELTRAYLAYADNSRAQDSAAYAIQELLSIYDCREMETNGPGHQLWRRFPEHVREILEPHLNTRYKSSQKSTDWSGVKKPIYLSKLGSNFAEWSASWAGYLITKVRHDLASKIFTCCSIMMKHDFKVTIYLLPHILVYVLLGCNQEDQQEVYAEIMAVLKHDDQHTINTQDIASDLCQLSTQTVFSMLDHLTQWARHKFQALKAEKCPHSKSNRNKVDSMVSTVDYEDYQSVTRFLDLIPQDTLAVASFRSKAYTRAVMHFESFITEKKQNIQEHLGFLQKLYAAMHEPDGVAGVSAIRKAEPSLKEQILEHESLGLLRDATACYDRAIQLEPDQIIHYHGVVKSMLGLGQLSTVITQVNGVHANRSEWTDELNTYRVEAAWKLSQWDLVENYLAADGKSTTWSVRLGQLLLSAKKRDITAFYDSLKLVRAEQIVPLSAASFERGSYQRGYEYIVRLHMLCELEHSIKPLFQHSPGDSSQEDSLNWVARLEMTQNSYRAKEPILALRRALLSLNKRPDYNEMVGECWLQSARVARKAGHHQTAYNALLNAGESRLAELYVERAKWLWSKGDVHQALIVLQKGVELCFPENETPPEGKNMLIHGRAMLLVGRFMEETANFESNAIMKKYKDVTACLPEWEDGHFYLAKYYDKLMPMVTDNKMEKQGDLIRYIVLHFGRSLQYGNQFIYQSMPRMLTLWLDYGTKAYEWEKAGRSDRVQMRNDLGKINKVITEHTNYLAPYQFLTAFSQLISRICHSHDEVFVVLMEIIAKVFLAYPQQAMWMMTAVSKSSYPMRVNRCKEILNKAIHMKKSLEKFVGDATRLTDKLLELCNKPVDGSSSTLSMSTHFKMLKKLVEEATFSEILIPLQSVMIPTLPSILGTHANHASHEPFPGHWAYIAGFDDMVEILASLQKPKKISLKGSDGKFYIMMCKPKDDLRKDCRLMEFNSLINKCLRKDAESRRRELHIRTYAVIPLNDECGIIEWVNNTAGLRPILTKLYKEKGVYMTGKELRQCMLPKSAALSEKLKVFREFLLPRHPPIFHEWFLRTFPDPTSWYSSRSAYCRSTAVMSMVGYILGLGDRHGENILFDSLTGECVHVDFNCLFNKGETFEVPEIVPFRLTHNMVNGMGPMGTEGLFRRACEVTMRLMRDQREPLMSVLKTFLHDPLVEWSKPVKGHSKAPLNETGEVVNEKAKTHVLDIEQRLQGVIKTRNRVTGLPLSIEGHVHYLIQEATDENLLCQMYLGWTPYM
T1 sequence (Q8WXE1 whole entry partner): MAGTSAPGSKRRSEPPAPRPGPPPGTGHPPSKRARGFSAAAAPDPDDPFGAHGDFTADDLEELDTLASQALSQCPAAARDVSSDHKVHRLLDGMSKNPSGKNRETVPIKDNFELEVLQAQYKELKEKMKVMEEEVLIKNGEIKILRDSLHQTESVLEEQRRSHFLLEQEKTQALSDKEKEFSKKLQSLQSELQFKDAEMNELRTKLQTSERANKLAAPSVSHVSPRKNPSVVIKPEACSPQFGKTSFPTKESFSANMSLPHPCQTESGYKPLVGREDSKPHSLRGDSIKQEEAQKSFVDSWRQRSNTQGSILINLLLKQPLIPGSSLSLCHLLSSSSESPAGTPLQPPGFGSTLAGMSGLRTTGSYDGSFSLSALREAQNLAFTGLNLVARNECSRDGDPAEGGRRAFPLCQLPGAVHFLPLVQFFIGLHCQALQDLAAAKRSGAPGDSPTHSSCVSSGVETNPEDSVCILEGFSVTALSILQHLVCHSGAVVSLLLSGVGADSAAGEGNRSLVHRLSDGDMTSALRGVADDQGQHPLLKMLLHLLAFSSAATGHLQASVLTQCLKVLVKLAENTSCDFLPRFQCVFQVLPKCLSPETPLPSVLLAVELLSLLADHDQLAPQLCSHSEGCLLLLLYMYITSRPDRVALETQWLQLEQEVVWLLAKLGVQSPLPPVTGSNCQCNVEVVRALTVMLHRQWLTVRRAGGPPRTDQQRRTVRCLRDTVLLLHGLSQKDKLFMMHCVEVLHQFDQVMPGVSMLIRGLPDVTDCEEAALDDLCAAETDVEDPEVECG
MAP3K1 ; Q13233, sequence (Q13233 whole entry): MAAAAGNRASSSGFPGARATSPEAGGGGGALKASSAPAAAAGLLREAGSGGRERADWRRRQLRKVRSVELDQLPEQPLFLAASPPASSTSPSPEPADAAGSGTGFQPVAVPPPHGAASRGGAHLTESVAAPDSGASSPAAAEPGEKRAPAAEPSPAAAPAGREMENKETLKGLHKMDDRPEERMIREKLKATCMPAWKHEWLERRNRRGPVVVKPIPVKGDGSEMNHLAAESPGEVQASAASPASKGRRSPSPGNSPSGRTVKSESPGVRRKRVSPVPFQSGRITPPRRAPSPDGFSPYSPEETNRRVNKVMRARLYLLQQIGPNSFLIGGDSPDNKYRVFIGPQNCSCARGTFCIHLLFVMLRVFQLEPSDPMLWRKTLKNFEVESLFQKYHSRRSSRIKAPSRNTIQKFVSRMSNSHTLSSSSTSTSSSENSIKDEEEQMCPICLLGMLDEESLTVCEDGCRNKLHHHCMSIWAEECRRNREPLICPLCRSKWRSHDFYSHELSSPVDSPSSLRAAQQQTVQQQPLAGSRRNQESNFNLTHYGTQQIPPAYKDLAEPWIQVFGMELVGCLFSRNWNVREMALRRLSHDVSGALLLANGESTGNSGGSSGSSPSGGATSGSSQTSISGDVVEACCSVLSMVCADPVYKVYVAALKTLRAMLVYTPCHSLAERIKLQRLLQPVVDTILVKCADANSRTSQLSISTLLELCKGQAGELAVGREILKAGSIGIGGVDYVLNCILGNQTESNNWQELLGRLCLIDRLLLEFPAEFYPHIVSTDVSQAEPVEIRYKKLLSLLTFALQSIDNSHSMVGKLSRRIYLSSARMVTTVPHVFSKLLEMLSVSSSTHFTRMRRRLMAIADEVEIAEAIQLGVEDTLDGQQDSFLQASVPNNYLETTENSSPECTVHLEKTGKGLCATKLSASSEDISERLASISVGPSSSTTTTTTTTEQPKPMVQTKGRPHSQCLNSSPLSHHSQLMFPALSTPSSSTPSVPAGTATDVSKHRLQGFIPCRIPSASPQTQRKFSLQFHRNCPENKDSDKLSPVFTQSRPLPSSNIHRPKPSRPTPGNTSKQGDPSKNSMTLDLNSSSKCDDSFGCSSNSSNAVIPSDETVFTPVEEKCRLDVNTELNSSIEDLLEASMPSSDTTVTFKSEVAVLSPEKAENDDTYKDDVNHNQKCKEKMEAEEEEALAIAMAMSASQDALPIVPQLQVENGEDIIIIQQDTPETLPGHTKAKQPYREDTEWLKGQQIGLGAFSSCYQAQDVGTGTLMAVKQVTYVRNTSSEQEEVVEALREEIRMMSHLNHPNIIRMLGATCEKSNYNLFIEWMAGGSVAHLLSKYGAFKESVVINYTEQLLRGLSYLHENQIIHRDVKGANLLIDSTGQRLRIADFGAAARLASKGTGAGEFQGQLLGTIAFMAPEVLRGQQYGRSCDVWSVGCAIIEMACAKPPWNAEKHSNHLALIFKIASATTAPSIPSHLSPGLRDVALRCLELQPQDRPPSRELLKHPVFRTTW

For the molecule `C[C@]12O[C@H](C[C@]1(O)CO)n1c3ccccc3c3c4c(c5c6ccccc6n2c5c31)CNC4=O` [Lestaurtinib], the 50% effective concentration (EC50) is […] with TNK1 (TNK1, 4 cell line mix lysate, Kinobeads y, ref Klaeger et al. (2017)); […] in the assay with FER (setting [1]); […] in the assay with TNK2 (TNK2, 4 cell line mix lysate, Kinobeads y, ref Klaeger et al. (2017)); […] with PLK4 (PLK4, 4 cell line mix lysate, Kinobeads y, ref Klaeger et al. (2017)); […] with FLT3 (FLT3, 4 cell line mix lysate, Kinobeads y, ref Klaeger et al. (2017)); […] in the assay with ULK3 (ULK3, 4 cell line mix lysate, Kinobeads y, ref Klaeger et al. (2017)). Besides, the EC50 in the assay on AAK1 (AAK1, 4 cell line mix lysate, Kinobeads y, ref Klaeger et al. (2017)) is […]; in the assay on Q6ZSR9 (Q6ZSR9, 4 cell line mix lysate, Kinobeads y, ref Klaeger et al. (2017)) it was 105 nM; in the assay on PRKD2 (PRKD2, 4 cell line mix lysate, Kinobeads y, ref Klaeger et al. (2017)) it was […]; in the assay on IRAK4 (IRAK4, 4 cell line mix lysate, Kinobeads y, ref Klaeger et al. (2017)), […]; with BMP2K (setting [1]), 323 nM; in the assay on RPS6KA4 (RPS6KA4, 4 cell line mix lysate, Kinobeads y, ref Klaeger et al. (2017)) it was […]. Moreover, the concentration for a half-maximal effect (EC50) is […] in the assay on SYK (setting [1]) and […] in the assay on PKN1 (PKN1, 4 cell line mix lysate, Kinobeads y, ref Klaeger et al. (2017)).

Consider `COc1cc(N2CCC(N3CCN(C)CC3)CC2)ccc1Nc1ncc(Cl)c(Nc2ccccc2P(C)(C)=O)n1` [Brigatinib], for which the concentration giving a half-maximal response (EC50) with TNK1 (setting [2]) was 1.59 nM; in the assay with FER (setting [3]), […]; in the assay on TNK2 (setting [4]), 5.93 nM; with PLK4 (setting [5]), 95.2 nM; with FLT3 (setting [6]), 142 nM; in the assay with ULK3 (setting [7]) it was 306 nM. Also, the half-maximal effective concentration (EC50) was 328 nM in the assay on AAK1 (setting [8]); 296 nM with Q6ZSR9 (setting [9]); 361 nM in the assay with PRKD2 (setting [10]); 492 nM in the assay with IRAK4 (setting [11]); 1510 nM in the assay on BMP2K (setting [3]); 2080 nM in the assay on RPS6KA4 (setting [13]). Further, the results for the concentration for a half-maximal effect (EC50) in the assay on SYK (setting [3]) and with PKN1 (setting [14]) were 1870 nM and 2270 nM, respectively. The pKDapp at TNK1 (setting [2]) is recorded as 9.16; at TNK2 (setting [4]), 8.57; on PLK4 (setting [5]) it was 7.31; at FLT3 (setting [6]), 7.12; at ULK3 (setting [7]), 6.86; at AAK1 (setting [8]), 6.66. The pKDapp on Q6ZSR9 (setting [9]) is given as 6.65; on PRKD2 (setting [10]) it was 6.62; at IRAK4 (setting [11]), 6.42; at BMP2K (setting [3]) it was 6.00; at RPS6KA4 (setting [13]), 5.89; at SYK (setting [3]) it was 5.81. In addition, the pKDapp on PKN1 (setting [14]) is 5.70. The Kd on TNK1 (TNK1, 5 cell line mix lysate, Kinobeads ε, ref Reinecke et al. (2023), read-out: KDapp) was 0.69 nM; at TNK2 (TNK2, 5 cell line mix lysate, Kinobeads ε, ref Reinecke et al. (2023), read-out: KDapp) it was 2.67 nM; on PLK4 (PLK4, 5 cell line mix lysate, Kinobeads ε, ref Reinecke et al. (2023), read-out: KDapp), 48.5 nM; on FLT3 (FLT3, 5 cell line mix lysate, Kinobeads ε, ref Reinecke et al. (2023), read-out: KDapp), 76.3 nM; at ULK3 (ULK3, 5 cell line mix lysate, Kinobeads ε, ref Reinecke et al. (2023), read-out: KDapp), 139 nM; on AAK1 (AAK1, 5 cell line mix lysate, Kinobeads ε, ref Reinecke et al. (2023), read-out: KDapp) it was 220 nM. Besides, the Kd is 225 nM at Q6ZSR9 (Q6ZSR9, 5 cell line mix lysate, Kinobeads ε, ref Reinecke et al. (2023), read-out: KDapp); 238 nM at PRKD2 (PRKD2, 5 cell line mix lysate, Kinobeads ε, ref Reinecke et al. (2023), read-out: KDapp); 381 nM on IRAK4 (IRAK4, 5 cell line mix lysate, Kinobeads ε, ref Reinecke et al. (2023), read-out: KDapp); 999 nM on BMP2K (setting [12]); 1290 nM at RPS6KA4 (RPS6KA4, 5 cell line mix lysate, Kinobeads ε, ref Reinecke et al. (2023), read-out: KDapp); 1570 nM on SYK (setting [12]). At PKN1 (PKN1, 5 cell line mix lysate, Kinobeads ε, ref Reinecke et al. (2023), read-out: KDapp), the Kd is 1990 nM.

Regarding `Nc1nn2cc(F)cnc2c1C(=O)Nc1cncc(F)c1N1CCC(C(=O)N2CCN(C3COC3)CC2)CC1` [Gartisertib], the Kd at ATR (AsPC-1 lysate, read-out: KDapp) was 318 nM; on GSK3A ; P49840 it was 0.719 nM; at MAP3K1 ; Q13233 it was 422 nM.

Take `CNCc1ccc(-c2cc(-c3nc(-c4ccc(S(=O)(=O)C(C)C)cc4)cnc3N)on2)cc1` [Berzosertib]: the “affinity to ATR over off-targets” value on ATR (Berzosertib: vs. all except ACVR2, Elimusertib: vs. PIK3C2A, Ceralasertib: vs. CDK7) was more than 10 fold. In addition, the Kd at GSK3A ; P49840 amounted to 39.7 nM; at MAP3K1 ; Q13233, 11.6 nM.
